Entries after “also recorded” stand apart in the source; their conditions may differ.
Tests used:
[1] = target: T1, B. cereus PC-PLC (phosphatidylcholine-specific phospholipase C) (Bacillus cereus, UniProt P09598); assay: Inhibition of phosphatidylcholine-specific phospholipase C (Amplex Red PC-PLC assay kit); type: biochemical; details: 30 min at 37° C., 0.2 U/mL PC-PLC solution, triplicate
T1 construct: purchased Invitrogen
Protocol: The inhibitory activities of optically active potassium salts of (+)- and (−)-O-exo/C-exo-tricyclo [5.2.1.0^2,6]-dec-9-yl-xanthic acid 1A ((+)- and (−)-enantiomers 1A) against phosphatidylcholine-specific phospholipase C were evaluated, together with D609 and potassium salt of racemic O-exo/C-exo xanthic acid 1A (racemic 1A), using Amplex Red phosphatidylcholine-specific phospholipase C(PC-PLC) assay kit, which was obtained from Invitrogen (Calsbad, Calif.). D609 was obtained from Sigma Aldrich.
An Amplex Red stock solution (˜20 mM), a working reaction buffer, and a horseradish peroxidase stock solution (200 U/mL), a H2O2 working solution (20 mM), a choline oxidate stock solution (20 U/mL), an alkaline phosphatase stock solution (400 U/mL), and a B. cereus PC-PLC stock solution (10 U/mL) were prepared according to the instruction of the assay kit. The stock solution (100 mg/mL) for each test compound was also prepared by dissolving the compound in water 2 hr prior to the start of the experiment.
A working Amplex Red/HRP/lecithin solution was prepared by adding 200 μL of Amplex Red reagent stock solution, 100 μL of HRP stock solution, 200 μL of alkaline phosphatase stock solution, 100 μL of choline oxidase stock solution, and 78 μL of the lecithin solution to […] of the working reaction buffer. PC-PLC solution (0.2 U/mL) was prepared by diluting the PC-PLC stock solution with the working reaction buffer to the desired concentration.
The test compound (25 μL) at a serious of concentrations was pipetted into a 96 well plate. For uninhibited PC-PLC controls and non-PC-PLC controls, 25 μL of water was added. After the addition of 50 μL of the Amplex Red/HRP/lecithin working solution, the reaction was initiated by adding 25 μL of PC-PLC solution to each well. […] After incubated for 30 min at 37° C., the reactions were measured with a fluorescence microplate reader using excitation at 550 nm and emission detection at 590 nm. The fluorescent data obtained were corrected for background fluorescence by subtracting the values obtained from the non-PC-PLC controls.

[2] = system: HPV-31 specific DNA in HPV-31-infected CIN612 9E keratinocytes; assay: Short-term study, inhibition of HPV-31 specific DNA (Southern Blot); type: cell-based, human papilloma virus; details: Human papillomavirus, Keratinocyte; at 32 μg/mL, 72 hrs
Protocol: The inhibitory activities of optically active (−)-enantiomer 1A against human papilloma virus were evaluated using HPV-31-infected CIN612 9E keratinocytes (Meyers et al., Science 1992, 257, 971-973).
Effect on HPV-31 specific DNA and RNA. HPV-31 infected cells (3×10^6) were dispensed into 14.5 cm dishes containing fresh E culture medium and 1×10^6 mitomycin C-treated J2 3T3 fibroblast feeders. After 6 hrs, fresh medium containing 0.85 g/L NaHCO3 and a test compound at a series of concentrations (0, 0.5, 1, 2, 4, 8, 16, and 32 μg/mL) were added. All samples were tested in duplicates at each concentration. After incubation at 37° C. for 72 hrs, the feeder cells were removed with 4 mM EDTA, and DNA and RNA was then isolated. The isolated DNA and RNA were analyzed in Southern and Northern Blot gels for HPV-31 specific sequences. Human A431 epithelial cancer cells were used as HPV-uninfected negative control. X-ray films were scanned and optical densities of HPV-31 specific DNA and major mRNA species were integrated.
Dose response curves were established by plotting integrated values against the concentrations of the test compound.

[3] = system: HPV-31-infected CIN612 9E keratinocytes; assay: Long-term study, effect on cell proliferation of CIN612 9E cells over 9 passages; type: cell-based, human papilloma virus
Protocol: (§1) HPV-31 infected cells (3×10^6) were dispensed into 14.5 cm dishes containing fresh E medium and 1×10^6 cells of mitomycin C-treated 3T3 fibroblast feeders. The dishes were incubated in a CO2 incubator under 5% CO2 at 37° C. in 100% humidity. Human A431 epithelial cancer cells were used as HPV-uninfected negative controls. After 6 hr incubation, the cell culture medium was removed and fresh E medium containing 0.85 g/L NaHCO3 and a test compound at concentrations of 10 and 3.3 μg/mL, or control (interferon γ at 200 IU/mL) were added. For each concentration, 4 dishes were prepared. The dishes were incubated at 37° C. in a CO2 incubator. The culture medium was replaced to new E medium containing each concentration of the test compound or control in every 72 hrs. After seven days, or when untreated cells became confluent, one dish of each group was harvested for DNA/RNA extraction, followed by Southern/Northern Blot analysis; and one dish was trypsinized, cell number were determined and cells were seeded in three new dishes, treated and cultured as described above. This procedure was repeated for 9 passages. During these passages, morphology of cells and cell density were monitored.
Effect on cell proliferation. Cell numbers in the dishes harvested were determined in a Neubauer hematocytometer. The multiplication factor was determined at every step of passage. The cell number of each culture at the end of the passage was divided by the number of seeded cells at the start of each passage. The end point was reached when keratinocytes treated with a test compound stopped growing. Stop of cell growth was defined as a multiplication factor of no greater than 1.

[4] = system: HPV-31 specific RNA in HPV-31-infected CIN612 9E keratinocytes; assay: Long-term study, HPV-31 specific RNA (Northern Blot); type: cell-based, human papilloma virus
Protocol: as §1
Effect on HPV-31 specific DNA and RNA: DNA and RNA were analyzed in Southern and Northern Blot gels for HPV-31 specific sequences. X-ray films were scanned and optical densities of HPV-31 specific DNA and major mRNA species were integrated. Time curves were established by plotting integrated values against number of passages for each treatment dose. The T50 (time required to reduce the level to 50% of control) was determined from the time curves from crossing points of time curves with a line parallel to the x-axis corresponding to 50% of integrals of untreated control sample.

T1 sequence (P09598 39-283 limits assumed): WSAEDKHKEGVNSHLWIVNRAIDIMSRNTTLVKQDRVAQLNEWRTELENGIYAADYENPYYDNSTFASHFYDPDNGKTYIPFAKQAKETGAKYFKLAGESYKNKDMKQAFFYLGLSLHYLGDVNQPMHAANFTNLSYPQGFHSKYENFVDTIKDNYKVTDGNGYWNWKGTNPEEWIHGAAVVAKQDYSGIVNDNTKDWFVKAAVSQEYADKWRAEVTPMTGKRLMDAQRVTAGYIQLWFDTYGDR

`S=C(S)OC1CC2CC1C1CCCC21` (single isomer, unassigned; (-)) [(−)-Enantiomer 1A, (−)-O-exo/C-exo-tricyclo[5.2.1.0^2,6]-dec-9-yl-xanthic acid] was tested, and the IC50 [1] was 15.9 µM, the inhibition at 32 µg/mL [2] was 37.5% and the growth ([3]; 3.3 μg/mL) was “reduction of the growth rate; also recorded: the cells almost stopped growing after 9 passages”. The cell proliferation ([3]; 10 μg/mL) was “significant reduction of cell proliferation”, the multiplication factor ([3]; 10 μg/mL, first five passages) was 2-2.5 and the “T50 RNA” value ([4]; 3.3 μg/mL) was 3.28 passages. For the same molecule, the “HPV-31 specific RNA content” value ([4]; 3.3 μg/mL or 10 μg/mL) was “continuous reductions”, the “T50 RNA” value ([4]; 10 μg/mL, listed as (−)-enantiomer 1A) was < 1 passages and the “T50 RNA” value ([4]; 10 μg/mL, listed as Cmpd 1A) was <1 passages. The mrna remaining at 10 µg/mL ([4]; Homo sapiens, Keratinocyte, 10 μg/mL, after 9 passages, read-out: viral RNA remaining) was < 1%.

— patent publication US20100240746A1, “STEREOISOMERS OF TRICYCLODECAN-9-YL-XANTHOGENATE” (LUMAVITA AG, priority 2007, published 2010)
